Among the test systems are CAKI-1; DLD-1; DMS-114; HCC 2998; HCT-15; LOX IMVI; MCF7; SF-268; SF-295; SK-MEL-28; SN12C; SNB-19; SNB-75; SNB-78; U-251; UACC-62; NCI-H23; BT-549; MDA-MB-231.
Common to all, as to assay: growth of human tumour cells (NCI), 48 h

Molecules are shown by their SMILES.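 48-hour exposure; five concentrations; linearly interpolated endpoints. Abbreviation: GI50, concentration required for 50% inhibition of growth.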 The source made the active and inactive calls. Cut-off read from the data, not from the text of the source: active = GI50 up to about 1.1 µM and inactive = higher.

Take `CC(=O)c1ccc2c(c1)c1c(C)c3c[n+](C)ccc3c(C)c1n2C`: the GI50 with CAKI-1 was 6.92 µM (inactive); with DLD-1, 4.56 µM (inactive); in the assay with DMS-114, 2.14 µM (inactive); in the assay with HCC 2998, 29.5 µM (inactive); with HCT-15, 17.6 µM; in the assay with LOX IMVI, 4.63 µM (inactive). Besides, the GI50 was 3.1 µM (inactive) in the assay on MCF7; 0.469 µM (active) with SF-268; 0.885 µM (active) in the assay with SF-295; 7.87 µM (inactive) in the assay with SK-MEL-28; 0.499 µM (active) with SN12C; 1.07 µM (active) in the assay on SNB-19. Moreover, the GI50 with SNB-75 is 7.48 µM (inactive); in the assay with SNB-78, 4.53 µM (inactive); with U-251, 0.706 µM (active); with UACC-62, 1.87 µM (inactive).
Turning to `Nc1ccc(/N=N/c2ccc(/C=C/c3ccc(/N=N/c4ccc(N)c5ccc(S(=O)(=O)O)cc45)cc3S(=O)(=O)O)c(S(=O)(=O)O)c2)c2cc(S(=O)(=O)O)ccc12`, the GI50 in the assay with DLD-1 was > 100 µM (inactive); in the assay with DMS-114, > 100 µM (inactive); in the assay on HCC 2998 it was > 100 µM (inactive); in the assay with HCT-15 it was above 100 µM; with LOX IMVI, > 100 µM (inactive); in the assay on MCF7, > 100 µM (inactive). Moreover, the GI50 in the assay with NCI-H23, in the assay on SF-268, in the assay with SF-295, in the assay with SK-MEL-28, in the assay on SN12C and in the assay on SNB-19 was > 100 µM (inactive) in each case. The GI50 was 56.2 µM (inactive) with SNB-75, > 100 µM (inactive) in the assay with SNB-78, > 100 µM (inactive) with U-251 and > 100 µM (inactive) with UACC-62.
For the compound `C=C1C(=O)OCC2C(C(=O)O)=CC3C(C)C(C)=CC123` (stereo not drawn), the GI50 in the assay on CAKI-1 is 19.6 µM (inactive); in the assay on DLD-1 it was 11 µM (inactive); in the assay on DMS-114, 7.69 µM (inactive); in the assay on HCC 2998, 10.2 µM (inactive); with HCT-15 it was 11 µM; in the assay on LOX IMVI, 8.13 µM (inactive). For the same compound, the GI50 in the assay on MCF7 is 8.13 µM (inactive); in the assay on NCI-H23, 8.36 µM (inactive); in the assay on SF-268, 9.46 µM (inactive); in the assay on SF-295, 15 µM (inactive); with SK-MEL-28, 3.52 µM (inactive); in the assay on SN12C it was 8.73 µM (inactive). Further, the GI50 is 11.8 µM (inactive) in the assay on SNB-19; 13.9 µM (inactive) with SNB-75; 14.8 µM (inactive) in the assay on SNB-78; 11 µM (inactive) in the assay with U-251; 5.41 µM (inactive) in the assay on UACC-62.
On to `CN(CCCNC(=O)c1nn(-c2ccccc2)c2c1ccc1ccccc12)CCCNC(=O)c1nn(-c2ccccc2)c2c1ccc1ccccc12`, for which the GI50 in the assay on BT-549 is 1.68 µM (inactive); in the assay with CAKI-1, 1.61 µM (inactive); in the assay on HCC 2998, 1.31 µM (inactive); in the assay on HCT-15, 1.84 µM; in the assay with LOX IMVI it was 1.73 µM (inactive); with MCF7 it was 1.8 µM (inactive). Also, the GI50 was 2.12 µM (inactive) with MDA-MB-231; 1.82 µM (inactive) in the assay on NCI-H23; 1.98 µM (inactive) in the assay with SF-268; 1.87 µM (inactive) in the assay with SF-295; 1.74 µM (inactive) in the assay on SK-MEL-28; 1.85 µM (inactive) in the assay with SN12C. Further, the GI50 in the assay on SNB-19 was 1.79 µM (inactive); in the assay on SNB-75, 1.64 µM (inactive); in the assay with U-251, 1.6 µM (inactive); in the assay with UACC-62, 1.6 µM (inactive).
Consider `CC1C=C(OC(=O)c2ccccc2)C(=O)C(n2cc(F)c(=O)n(C(=O)c3ccccc3)c2=O)O1` (stereo not drawn), for which the GI50 in the assay on CAKI-1 is 32.4 µM (inactive); in the assay with DLD-1, 41.6 µM (inactive); with DMS-114 it was 42.1 µM (inactive); in the assay on HCT-15, 32.5 µM; in the assay on LOX IMVI, 23.1 µM (inactive); with NCI-H23, 43 µM (inactive). Besides, the GI50 in the assay on SF-295 was 78 µM (inactive); in the assay with SK-MEL-28, 46.8 µM (inactive); in the assay on SN12C, 53.1 µM (inactive); in the assay with SNB-19 it was > 100 µM (inactive); in the assay on SNB-75, 49.2 µM (inactive); with SNB-78, 51.2 µM (inactive). Moreover, the GI50 is 37.3 µM (inactive) in the assay on U-251 and 35.3 µM (inactive) in the assay on UACC-62.
For the compound `C=C(C)C(=O)OC1C(C(C)CCCO)=C(CO)CC2OC(=O)C(=C)C21` (stereo not drawn), the GI50 with BT-549 was 14 µM (inactive); with CAKI-1 it was 17.1 µM (inactive); in the assay with HCC 2998 it was 17.7 µM (inactive); with HCT-15, 13.3 µM; in the assay with LOX IMVI, 10.1 µM (inactive); in the assay with MCF7, 11 µM (inactive). Further, the GI50 is 17.5 µM (inactive) in the assay with MDA-MB-231; 19.3 µM (inactive) in the assay on NCI-H23; 17.1 µM (inactive) with SF-268; 47.2 µM (inactive) in the assay on SF-295; 20 µM (inactive) in the assay on SK-MEL-28; 16.1 µM (inactive) with SN12C. In addition, the GI50 in the assay on SNB-19 was 37.9 µM (inactive); in the assay on SNB-75, 10.4 µM (inactive); in the assay on U-251, 20.2 µM (inactive); in the assay with UACC-62, 14.9 µM (inactive).
Consider `CC1=NC(C)(C)[N+]([O-])=C1`, for which the GI50 was > 10 µM (inactive) in the assay with BT-549; > 10 µM (inactive) in the assay with CAKI-1; > 10 µM (inactive) in the assay on HCC 2998; above 10 µM in the assay on HCT-15; > 10 µM (inactive) in the assay with LOX IMVI; > 10 µM (inactive) with MCF7. Besides, the GI50 in the assay on MDA-MB-231, in the assay with NCI-H23, in the assay with SF-268, in the assay on SF-295, with SK-MEL-28 and in the assay with SN12C was > 10 µM (inactive) each time. Besides, the GI50 with SNB-19 is > 10 µM (inactive); with SNB-75 it was 0.0718 µM (active); in the assay on U-251, > 10 µM (inactive); in the assay with UACC-62 it was > 10 µM (inactive).
As for `CN(C)CC(CC1=C(CC(CN(C)C)N(C)C)CCC1)N(C)C` (stereo not drawn), the GI50 in the assay with CAKI-1 was > 100 µM (inactive); with DLD-1 it was > 100 µM (inactive); in the assay with DMS-114, > 100 µM (inactive); with HCC 2998, > 100 µM (inactive); in the assay with HCT-15, above 100 µM; in the assay with LOX IMVI, > 100 µM (inactive). For the same compound, the GI50 in the assay on MCF7, with NCI-H23, in the assay with SF-268, with SF-295, in the assay with SK-MEL-28 and with SN12C was > 100 µM (inactive) throughout. For the same compound, the GI50 with SNB-19, in the assay on SNB-75, with U-251 and in the assay on UACC-62 was > 100 µM (inactive) each time.
For the compound `ClC1=C(Cc2ccccc2)Cc2ccc3c(c21)CCC3`, the GI50 with BT-549 was 31.1 µM (inactive); in the assay with CAKI-1, 41.4 µM (inactive); in the assay with HCC 2998 it was 20 µM (inactive); in the assay on HCT-15, 31.3 µM; with LOX IMVI it was 17.9 µM (inactive); in the assay with MCF7 it was 18.9 µM (inactive). In addition, the GI50 is 21.8 µM (inactive) in the assay with MDA-MB-231; 19.7 µM (inactive) with NCI-H23; 33.2 µM (inactive) with SF-268; 29.4 µM (inactive) in the assay on SF-295; 66.5 µM (inactive) in the assay on SK-MEL-28; 34.4 µM (inactive) in the assay with SN12C. The GI50 in the assay on SNB-19 is 21.5 µM (inactive); in the assay with SNB-75 it was > 10 µM (inactive); with U-251 it was 19.1 µM (inactive); with UACC-62, 27.6 µM (inactive).
With `CN(Cc1cnc2nc(N)nc(N)c2n1)c1ccc(C(=O)NC(CCC(=O)NCCC(P(=O)(O)O)P(=O)(O)O)C(=O)O)cc1` (stereo not drawn), the GI50 with BT-549 is > 100 µM (inactive); in the assay with CAKI-1, > 25 µM (inactive); with HCC 2998 it was 71.4 µM (inactive); in the assay with HCT-15 it was 6.67 µM; in the assay with LOX IMVI, 4.38 µM (inactive); with MCF7, 5 µM (inactive). Moreover, the GI50 in the assay with MDA-MB-231 was > 100 µM (inactive); in the assay on NCI-H23, 24.5 µM (inactive); in the assay on SF-268, 14.2 µM (inactive); in the assay on SF-295, 18.7 µM (inactive); with SK-MEL-28, > 100 µM (inactive); in the assay with SN12C, 11 µM (inactive). The GI50 with SNB-19 was > 87.7 µM (inactive); with SNB-75, > 100 µM (inactive); with U-251 it was 25.9 µM (inactive); in the assay with UACC-62, 28.4 µM (inactive).
For the compound `CN(C)C(=O)/C=C/c1c[nH]c(=O)[nH]c1=O`, the GI50 was > 500 µM (inactive) in the assay on CAKI-1; > 500 µM (inactive) in the assay on DLD-1; > 500 µM (inactive) with DMS-114; > 500 µM (inactive) in the assay on HCC 2998; above 500 µM with HCT-15; > 500 µM (inactive) with LOX IMVI. The GI50 in the assay with MCF7, in the assay with NCI-H23, with SF-268, in the assay with SF-295, in the assay with SK-MEL-28 and with SN12C was > 500 µM (inactive) throughout. The GI50 in the assay on SNB-19, in the assay with SNB-75, in the assay with U-251 and in the assay on UACC-62 was > 500 µM (inactive) in each case.
As for `O=C(c1ccccc1)c1c(CC(O)c2cccnc2)n(C(=O)c2ccccc2)c2ccccc12` (stereo not drawn), the GI50 in the assay with CAKI-1 was 26.4 µM (inactive); with DMS-114 it was 27.7 µM (inactive); with HCC 2998, 16.5 µM (inactive); in the assay with HCT-15, 21.3 µM; with NCI-H23 it was 16.5 µM (inactive); in the assay on SF-268, 20 µM (inactive). For the same compound, the GI50 with SF-295 was 17.4 µM (inactive); with SK-MEL-28, 17.7 µM (inactive); in the assay on SNB-19, 18.9 µM (inactive); with SNB-75, 3.72 µM (inactive); in the assay with U-251 it was 17 µM (inactive); in the assay with UACC-62 it was 16.5 µM (inactive).
As for `CCOC(=O)C(C)(C)C(O)C(C)C` (stereo not drawn), the GI50 in the assay with BT-549 was > 100 µM (inactive); in the assay with CAKI-1 it was > 100 µM (inactive); with HCC 2998, > 100 µM (inactive); with HCT-15 it was above 100 µM; with LOX IMVI, > 100 µM (inactive); in the assay on MCF7, > 100 µM (inactive). Also, the GI50 in the assay with MDA-MB-231, in the assay with NCI-H23, in the assay on SF-268, with SF-295, in the assay with SK-MEL-28 and with SN12C was > 100 µM (inactive) in each case. Besides, the GI50 in the assay on SNB-19, in the assay with SNB-75, with U-251 and in the assay on UACC-62 was > 100 µM (inactive) throughout.

For the origin of these results see ChEMBL document CHEMBL1201862, “PubChem BioAssay data set” (2004).
